# What was measured:
# ZAP-70 = biological target: T1, ZAP-70 (Homo sapiens, UniProt P43403); experiment: ZAP-70 kinobeads assay; type: binding; conditions: cell lysate, dot blot detection
# T1 construct: endogenous in cells; host or cells: cell lysate
# T1 sequence (P43403 1-619): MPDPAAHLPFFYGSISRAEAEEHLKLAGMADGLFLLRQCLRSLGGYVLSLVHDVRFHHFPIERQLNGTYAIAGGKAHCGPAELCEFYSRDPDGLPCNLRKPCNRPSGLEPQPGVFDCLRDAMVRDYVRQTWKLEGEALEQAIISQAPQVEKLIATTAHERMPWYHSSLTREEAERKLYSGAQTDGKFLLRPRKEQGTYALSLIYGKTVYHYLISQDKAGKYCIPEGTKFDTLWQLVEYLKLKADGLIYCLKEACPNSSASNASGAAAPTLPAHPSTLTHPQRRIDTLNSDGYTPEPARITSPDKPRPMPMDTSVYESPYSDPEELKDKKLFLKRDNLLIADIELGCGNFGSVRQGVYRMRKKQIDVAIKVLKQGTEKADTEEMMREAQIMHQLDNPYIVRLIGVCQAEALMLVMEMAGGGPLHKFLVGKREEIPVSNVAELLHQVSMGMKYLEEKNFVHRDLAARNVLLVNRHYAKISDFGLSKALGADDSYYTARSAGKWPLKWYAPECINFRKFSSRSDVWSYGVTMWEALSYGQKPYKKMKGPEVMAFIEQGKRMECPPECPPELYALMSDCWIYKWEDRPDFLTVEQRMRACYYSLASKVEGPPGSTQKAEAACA
# Description: The compounds of the present invention as described in the previous examples can be tested in the ZAP-70 kinobeads assay as described (EP-A 1862802 and WO-A 2007/137867). Briefly, test compounds (at various concentrations) and the affinity matrix with the immobilized aminopyrido-pyrimidine ligand 24 are added to cell lysate aliquots and allowed to bind to the proteins in the lysate sample. After the incubation time the beads with captured proteins are separated from the lysate. Bound proteins are then eluted and the presence ZAP-70 is detected and quantified using a specific antibody in a dot blot procedure and the Odyssey infrared detection system.
# Jurkat cells = experiment: Calcium release assay (Fluo-4, flow cytometry, anti-CD3 stimulation); type: cell-based; conditions: Homo sapiens; intracellular Ca2+ release in Jurkat cells after anti-CD3 activation
# Description: Compounds of the present invention were tested in a Calcium release assay as described below.
# The development of fluorescent probes makes it possible to measure the concentration of intracellular free Calcium ions in single living cells. Cells are first loaded with a cell-permeable Ca^2+-sensitive dye, then the test compound is added. Finally, cells are activated through the T cell receptor with an anti-CD3 antibody shortly before data acquisition on the flow cytometer. The release of Ca^2+ is measured as a function of time after cell stimulation. This protocol describes the flow cytometry method using the Fluo-3 and Fluo-4 dyes (Minta et al., 1989, J. Biol. Chem. 264(14):8171-8178) to measure the intracellular Ca^2+ concentration in Jurkat cells (see also June et al., 1997, Measurement of intracellular calcium ions by flow cytometry. In: Current Protocols in Cytometry (1997) Unit 9.8.1-9.8.19, John Wiley & Sons, Inc.).
# 1) Prepare a work plan indicating the number of samples to be analyzed including controls. 2) Cell harvest: Centrifuge 50 to 100 ml of a Jurkat cell culture for 5 minutes at 1100 rpm. Discard the supernatant, pool the resuspended cell pellets in a single 50 ml Falcon tube, and fill up to 50 ml with PBS-CaCl2 (without FCS). Centrifuge again sample again. 3) Resuspend cell pellet with PBS-CaCl2 (without FCS) to achieve a concentration not lower than 10×10^6 cells/ml. Prepare an adequate dilution to evaluate the cell concentration and count the cells. 4) Separate the volume of cells needed to be loaded (for example […] for 20 samples) in a 50 ml Falcon tube. Fill up with PBS-CaCl2 to 900 μl for 107 cells. 5) Prepare in the dark a 1:1 mix of FLUO-4 (1 mM)+Pluronic F-127 (20%). 5 μl of Fluo-4 are needed per 107 cells. 6) Prepare a 1/10 dilution of this mix with PBS-CaCl2 (in the dark; for example 5 μl Fluo-4+5 μl F-127 completed to 100 μl). 7) Add the dye solution to the cells. […] 8) Incubate the sample for 30 minutes in a cell incubator (37° C., 5% CO2). Mix from time to time. 9) During this time prepare the adequate test compound dilution in PBS-CaCl2 (with 10% FCS). The solution should be 10 times more concentrated than the desired final concentration. Vortex each dilution. Prepare also the antibody dilutions: anti-CD3 (1/200) and GAM (1/25). 10) Label FACS tubes and distribute in the corresponding tube 30 μl of the compound dilution or only buffer for the control tubes. 11) After 30 minutes of incubation wash the cells twice in PBS-CaCl2 (with 10% FCS). During the washing steps make sure that the flow cytometer is already “ON” in order to warm the laser. 12) Resuspend the cell pellet in PBS-CaCl2 (with 10% FCS) at a concentration of 1.5×10^6 cells/ml. 13) Distribute 300 μl of cell suspension into the FACS tubes and mix gently. The compound incubation is starting. Keep samples at room temperature in the dark. 14) Open the settings of the cytometer. It is advised to have a template ready which is used for all measurements. Settings of the machine should also be the same from one experiment to the other which permits to evaluate the reproducibility of the cell preparation. 15) In Setup modus control your cell preparation on the cytometer. Cells should fit in the pre-defined gates. 16) During the compound incubation time, check also that cells are responding to the anti-CD3 activation as expected. Set a timer at 8 sec. Add 6 μl of anti-CD3 dilution (0.2 μg/ml final) and mix gently. Add 1 μl of GAM dilution (0.75 μg/ml final) and mix gently. Incubate the samples in water bath at 37° C. while starting timer. After 8 seconds of incubation, acquire data at medium speed for 200 seconds. A clear increase of fluorescence should appear after 1 minute. 17) Make sure that the cells rest and equilibrate at room temperature 15 minutes before FACS data acquisition 18) Data acquisition: Samples to be compared should be measured consecutively. 19) For a better reproducibility, make sure that data for the loaded cells are acquired within 2 hours. […]
SMILES,IC50 (ZAP-70) [µM],IC50 (Jurkat cells) [µM]
"COc1cc(Nc2ncc(F)c(Nc3cccc(NS(N)(=O)=O)c3)n2)cc(OC)c1OC [Example 1, N-(3-(5-fluoro-2-(3,4,5-trimethoxyphenylamino)pyrimidin-4-ylamino)phenyl)sulfamide]",< 50,< 1
"CCNS(=O)(=O)Nc1cccc(Nc2nc(Nc3cc(OC)c(OC)c(OC)c3)ncc2F)c1 [Example 7, N-(3-(5-fluoro-2-(3,4,5-trimethoxyphenylamino)pyrimidin-4-ylamino)phenyl)-N′-ethylsulfamide]",< 50,< 1
"COc1cc(Nc2ncc(F)c(Nc3ccccc3NS(N)(=O)=O)n2)cc(OC)c1OC [Example 10, N-(2-(5-fluoro-2-(3,4,5-trimethoxyphenylamino)pyrimidin-4-ylamino)phenyl)sulfamide]",< 0.1,< 0.1
"COc1cc(Nc2ncc(F)c(Nc3ccccc3NS(=O)(=O)N(C)C)n2)cc(OC)c1OC [Example 11, N-(2-(5-fluoro-2-(3,4,5-trimethoxyphenylamino)pyrimidin-4-ylamino)phenyl)-N′,N′-dimethylsulfamide]",< 1,< 1
"COc1cc(Nc2ncc(F)c(Nc3ccccc3NS(=O)(=O)NCC3CC3)n2)cc(OC)c1OC [Example 12, N-(2-(5-fluoro-2-(3,4,5-trimethoxyphenylamino)pyrimidin-4-ylamino)phenyl)-N′-cyclopropylmethylsulfamide]",< 50,< 1
"COCCNS(=O)(=O)Nc1ccccc1Nc1nc(Nc2cc(OC)c(OC)c(OC)c2)ncc1F [Example 15, N-(2-(5-fluoro-2-(3,4,5-trimethoxyphenylamino)pyrimidin-4-ylamino)phenyl)-N′-(2-methoxyethyl)sulfamide]",< 50,< 1
"COc1cc(Nc2ncc(F)c(Nc3ccc(NS(=O)(=O)N(C)C)cc3)n2)cc(OC)c1OC [Example 16, N-(4-(5-fluoro-2-(3,4,5-trimethoxyphenylamino)pyrimidin-4-ylamino)phenyl)N′,N′-dimethylsulfamide]",–,< 1
"COc1cc(Nc2nccc(Nc3ccccc3NS(N)(=O)=O)n2)cc(OC)c1OC [Example 23, N-(2-(2-(3,4,5-trimethoxyphenylamino)pyrimidin-4-ylamino)phenyl)sulfamide]",< 1,< 1
"COc1cc(Nc2ncc(C)c(Nc3ccccc3NS(N)(=O)=O)n2)cc(OC)c1OC [Example 24, N-(2-(5-methyl-2-(3,4,5-trimethoxyphenylamino)pyrimidin-4-ylamino)phenyl)sulfamide]",< 1,< 0.1
CN(C)c1ccc(Nc2ncc(Br)c(Nc3ccccc3NS(N)(=O)=O)n2)cc1 [Example 25],< 1,< 0.1
"COc1ccc(Nc2ncc(Br)c(Nc3ccccc3NS(N)(=O)=O)n2)cc1 [Example 26, N-(2-(5-bromo-2-(4-methoxyamino)pyrimidin-4-ylamino)phenyl)sulfamide]",< 1,< 0.1
"NS(=O)(=O)Nc1ccccc1Nc1nc(Nc2ccc3[nH]nnc3c2)ncc1Br [Example 27, N-(2-(2 (1H-benzo[d][1,2,3]triazol-5-ylamino)-5-bromopyrimidin-4-ylamino)phenyl)sulfamide]",< 1,< 1
"COc1ccc(Nc2ncc(F)c(Nc3ccccc3NS(N)(=O)=O)n2)cc1 [Example 28, N-(2-(5-fluoro-2-(4-methoxyphenylamino)pyrimidin-4-ylamino)phenyl)sulfamide]",< 50,< 1
"COc1cc(Nc2ncc(F)c(Nc3cccc(C)c3NS(N)(=O)=O)n2)cc(OC)c1OC [Example 30, N-(2-(5-fluoro-2-(3,4,5-trimethoxyphenylamino)pyrimidin-4-ylamino)-6-methylphenyl)sulfamide]",< 0.1,< 0.1
"COc1cc(Nc2ncc(F)c(Nc3ccc(C)c(C)c3NS(N)(=O)=O)n2)cc(OC)c1OC [Example 31, N-(6-(5-fluoro-2-(3,4,5-trimethoxyphenylamino)pyrimidin-4-ylamino)-2,3-dimethylphenyl)sulfamide]",< 1,< 1
"COc1cccc(Nc2nc(Nc3cc(OC)c(OC)c(OC)c3)ncc2F)c1NS(N)(=O)=O [Example 32, N-(2-(5-fluoro-2-(3,4,5-trimethoxyphenylamino)pyrimidin-4-ylamino)-6-methoxyphenyl)sulfamide]",< 0.1,< 0.1
"CCOc1cccc(Nc2nc(Nc3cc(OC)c(OC)c(OC)c3)ncc2F)c1NS(N)(=O)=O [Example 33, N-(2-ethoxy-6-(5-fluoro-2-(3,4,5-trimethoxyphenylamino)pyrimidin-4-ylamino)phenyl)sulfamide]",< 0.1,< 1
"COc1cc(Nc2ncc(F)c(Nc3ccc(C)cc3NS(N)(=O)=O)n2)cc(OC)c1OC [Example 34, N-(2-(5-Fluoro-2-(3,4,5-trimethoxyphenylamino)pyrimidin-4-ylamino)-5-methylphenyl)sulfamide]",< 1,< 1
"COc1cc(Nc2ncc(F)c(Nc3ccc(N4CCOCC4)cc3NS(N)(=O)=O)n2)cc(OC)c1OC [Example 35, N-(2-(5-Fluoro-2-(3,4,5-trimethoxyphenylamino)pyrimidin-4-ylamino)-5-morpholinophenyl)sulfamide]",< 1,< 1
"COc1ccc(NS(N)(=O)=O)c(Nc2nc(Nc3cc(OC)c(OC)c(OC)c3)ncc2F)c1 [Example 36, N-(2-(5-fluoro-2-(3,4,5-trimethoxyphenylamino)pyrimidin-4-ylamino)-4-methoxyphenyl)sulfamide]",< 50,< 1
"COc1cc(Nc2ncc(F)c(Nc3cc(F)ccc3NS(N)(=O)=O)n2)cc(OC)c1OC [Example 37, N-(4-fluoro-2-(5-fluoro-2-(3,4,5-trimethoxyphenylamino)pyrimidin-4-ylamino)phenyl)sulfamide]",< 1,< 1

# From patent US20110028405A1, “SULFAMIDES AS ZAP-70 INHIBITORS” (priority 2007, published 2011)
